Read-outs that look alike come from different tables or passages of the source.
How the values were obtained:
[1] = parameters: method as in earlier work; conditions: cited from earlier work
[2] = ref [67]; cited from earlier work
[3] = tested on: SW480, MES-SA, MES-SA/Dx5, HL60, 41M, SK-BR-3; parameters: method as in PMID 32336116, PMID 22189939, PMID 31250199; conditions: several human cancer cells; ref [36],[58],[80]; read-out: IC50 values reported; cited from earlier work
[4] = tested on: Colo320; parameters: method as in doi:10.1039/D0NJ01070G; conditions: 72 h of exposure; ref [77]; cited from earlier work
[5] = tested on: Colo205; parameters: method as in doi:10.1039/D0NJ01070G; conditions: 72 h of exposure; ref [77]; cited from earlier work
[6] = tested on: MRC-5; parameters: method as in doi:10.1039/D0NJ01070G; conditions: 72 h of exposure; ref [77]; cited from earlier work
[7] = tested on: SW480 cells; test: Cell cycle distribution by flow cytometry; assay type: cell-based, human; conditions: 0.01 μM; 24 h
Text: […] TEXT PRINTED IN THE PICTURE: (A) no label printed: S: 27.7% | (B) no label printed: S: 33.8% | (C) no label printed: S: 44.0% | (D) no label printed: S: 46.5% DOUBTS OF THE COPYIST ABOUT THIS PICTURE: No substance labels are printed in the picture, only the panel letters A-D. / The phase label "S" is printed only in panel A. Applying it to the percentages in panels B, C and D is assumed from where the marker line sits.

[8] = target: T1, mouse R2 RNR protein (Mus musculus, UniProt P11157); test: Tyrosyl radical reduction in mouse R2 RNR protein (EPR); assay type: biochemical; conditions: 20 μM compound; 2 mM DTT
T1 construct: made in house
T1 sequence (P11157 1-390): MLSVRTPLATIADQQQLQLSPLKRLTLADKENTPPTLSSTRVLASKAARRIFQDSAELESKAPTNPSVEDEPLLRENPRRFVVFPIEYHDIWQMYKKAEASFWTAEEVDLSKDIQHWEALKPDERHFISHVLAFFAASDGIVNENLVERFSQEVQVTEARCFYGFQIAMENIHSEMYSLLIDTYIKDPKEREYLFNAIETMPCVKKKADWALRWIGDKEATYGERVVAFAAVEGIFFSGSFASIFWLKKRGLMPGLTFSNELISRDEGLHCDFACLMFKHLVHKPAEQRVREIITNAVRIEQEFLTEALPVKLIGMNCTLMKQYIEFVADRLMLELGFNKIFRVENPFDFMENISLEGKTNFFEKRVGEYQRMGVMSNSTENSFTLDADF
Protocol: The time-dependent tyrosyl radical reduction in mR2 RNR by equimolar concentrations of TSCs and their respective copper(II) complexes, under reducing conditions, is shown in Figure 15. […] The favorable impact of the copper(II) coordination on the HL^2 inhibitory activity is quite obvious, when the ability to quench the tyrosyl radical by HL^2 is compared to that of 2′.
The samples contained 20 μM mR2 in 50 mM HEPES buffer, pH 7.60/100 mM KCl, 20 μM compound in 1% (v/v) DMSO/H2O, and 2 mM DTT. […]
2.6. Tyrosyl radical reduction in mouse R2 RNR protein
The tyrosyl radical reduction in mR2 protein by HL1, HL2, HL3, Cu(HL1)Cl2, [Cu(L2)Cl],
Cu(HL3)Cl2, HL1a’, HL1a’’, and HL2c´·CH3COOH was measured by EPR spectroscopy at 30 K,
on a Bruker Elexsys II E540 EPR spectrometer with an Oxford Instruments ER 4112HV helium
cryostat, as described previously.12,13 mR2 protein was expressed, purified, and iron -reconstituted
as described previously, 14 and passed through a 5 mL HiTrap desalting column (GE Healthcare)
(§1) 0.76 tyrosyl radical/polypeptide. Samples containing 20 µM mR2 in 50 mM HEPES buffer, pH
(§2) 7.50/100 mM NaCl, and 20 µM respective compound in 1% (v/v) DMSO/H2O, and 2 mM
dithiothreitol (DTT) were incubated for indicated times and quickly frozen in cold isopentane. The
same samples were used for repeated incubations at room temperature. […]
Furthermore, the intrinsic reaction coordinate (IRC) analysis was
performed to authenticate that the transition state pertains to the desired reaction coordinate. The
IRC calculations were done at the B3LYP/6-311++G(d,p) level of theory. Molecular orbitals were
drawn using Molekel software.17
3. Schemes for assignment of resonances in HL1 – HL3 and their isomers
Scheme S1. The atom numbering for the assignment of resonances in HL1 – HL3.
(1 picture or pasted object on this page, not shown here)

[9] = tested on: Colo205; test: MTT cytotoxicity assay, Colo205; assay type: cell-based; conditions: Homo sapiens, COLO 205, 72 h of exposure
Protocol: (§3) The in vitro cytotoxicity of the TSCs HL^1–HL^3, copper(II) complexes Cu(HL^1)Cl2, [Cu(L^2)Cl], and Cu(HL^3)Cl2, and oxidized TSCs HL^1a′, HL^1a″, and HL^2c′·CH3COOH was tested in the doxorubicin-sensitive Colo205 and the multidrug-resistant Colo320 human colonic adenocarcinoma cell lines as well as in normal human embryonal lung fibroblast cells (MRC-5) by the colorimetric MTT assay. […]
(§4) 2.5. In vitro cell studies
(§5) 2.5.1. Cell lines and culture conditions
(§6) All cell culture reagents were obtained from Sigma-Aldrich and plastic ware from Sarstedt
(§7) (Germany). Doxorubicin-sensitive human colonic Colo 205 and multidrug resistant
(§8) Colo 320/MDR-LRP adenocarcinoma cell lines were purchased from LGC Promochem,
(§9) Teddington, UK. The cells were cultured in Roswell Park Memorial Institute (RPMI) 1640
(§10) medium supplemented with 10% heat-inactivated fetal bovine serum, 2 mM L-glutamine, 1 mM
(§11) Na-pyruvate and 100 mM Hepes. The cell lines were incubated at 37°C, in a 5% CO2, 95% air
(§12) MRC-5 human embryonal lung fibroblast cell line (ATCC CCL-171) was purchased from LGC
(§13) Promochem, Teddington, UK. The cell line was cultured in Eagle’s Minimal Essential Medi um
(§14) (EMEM, containing 4.5 g/L glucose) supplemented with a non-essential amino acid mixture, a
(§15) selection of vitamins and 10% heat-inactivated fetal bovine serum. The cells were incubated at
(§16) 37°C, in a 5% CO2, 95% air atmosphere. All cell lines were detached with Trypsin-Versene
(§17) (EDTA) solution for 5 min at 37 °C.
(§18) The tested compounds were dissolved in DMSO using 10 mM concentration. Then stock solutions
(§19) were diluted in complete culture medium in 96-well microtiter plates, and two-fold serial dilutions
(§20) of compounds were prepared in 100 µL of RPMI 1640, horizontally. The semi-adherent colonic
(§21) adenocarcinoma cells were treated with Trypsin -Versene (EDTA) solution. They were adjusted to
(§22) a density of 1×10^4 cells in 100 µL of RPMI 1640 medium, and were added to each well, with the
(§23) exception of the medium control wells. The final volume of the wells containing compounds and
(§24) cells was 200 µL. The culture were incubated at 37 °C for 72 h; at the end of the incubation period,
(§25) 20 µL of MTT solution (from a stock solution of 5 mg/mL) were added to each well. After
(§26) incubation at 37 °C for 4 h, 100 µL of SDS solution (10% in 0.01 M HCI) were added to each well
(§27) and the plates were further incubated at 37 °C overnight. The cell growth was determined using
(§28) both methods by measuring the optical density (OD) at 450 nm (ref. 620 nm) with a Multiscan EX
(§29) ELISA reader. Inhibition of the cell growth (expressed as IC 50: inhibitory concentration that
(§30) reduces by 50% the growth of the cells exposed to the tested compounds) was determined from
(§31) the sigmoid curve where 100 – ((ODsample ‒ ODmedium control)/(ODcell control ‒ ODmedium control)) × 100
(§32) values were plotted against the logarithm of compound concentrations. […]
as §1, §2

[10] = tested on: MRC-5; test: MTT cytotoxicity assay, MRC-5; assay type: cell-based; conditions: Homo sapiens, MRC5, 72 h of exposure
Protocol: as §4, §5
All cell culture reagents were obtained from Sigma-Aldrich and plastic ware from Sarstedt […]
as §12, §13, §14, §15, §16, §17, §18, §19, §20, §21, §22, §23, §24, §25, §26, §27, §28, §29, §30, §31, §32

[11] = tested on: Colo320; test: MTT cytotoxicity assay, Colo320; assay type: cell-based; conditions: Homo sapiens, COLO 320, 72 h of exposure
Protocol: as §3, §4, §5, §6, §7, §8, §9, §10, §11, §12, §13, §14, §15, §16, §17, §18, §19, §20, §21, §22, §23, §24, §25, §26, §27, §28, §29, §30, §31, §32, §1, §2

SMILES: NC(=O)NO [hydroxyurea]
- redox potential [1]: +0.724 V

SMILES: C/C(=N\NC(N)=S)c1ccccn1 [AcTSC, 2-acetylpyridine TSC]
- log D7.4 [2]: +1.02
- IC50 [3]: 2.5 to 3.6 µM

SMILES: [Cl][Cu][Cl] [CuCl2, copper(II) chloride]
- IC50 [4]: 20 µM
- IC50 [5]: 19.7 µM
- IC50 [6]: 24.5 µM

SMILES: Nc1ccn([C@@H]2O[C@H](CO)[C@@H](O)C2(F)F)c(=O)n1 [Gemcitabine, reference compound]
- G1 phase cells [7]: 26.8%
- S phase cells [7]: 62.3%

SMILES: CC(=NNc1nc2cc(C)c(O)c(C)c2s1)c1ccccn1 [HL^2c′·CH3COOH]
- tyrosyl radical reduction (comparison in words) [8]: as potent as HL^3
- IC50 [9]: 2.73 ± 0.059 µM
- IC50 [10]: 2.15 ± 0.1 µM
- IC50 [11]: 0.188 ± 0.041 µM

SMILES: COc1cccc2c1C(=O)c1c(O)c3c(c(O)c1C2=O)C[C@@](O)(C(=O)CO)C[C@@H]3O[C@H]1C[C@H](N)[C@H](O)[C@H](C)O1 [doxorubicin]
- IC50 [4]: 3.12 µM
- IC50 [5]: 3.28 µM
